The sequences below were run on Acar3. Conditions: Table S1; top 94 PSCPL-scoring peptides; SPA, 10µM peptide, 125I β2m, folding over night at 18°C, dissociation measured up to 24 hours at 37°C.
Type: binding, great reed warbler Acrocephalus arundinaceus

Row | Sequence | Stability T½ of Acar3 in complex with the peptide
1 | VMMAKRPLI [9-mer peptide] | 30 min
2 | VMPLLVWLF [9-mer peptide] | 114 min
3 | VPMEKLKAL [9-mer peptide] | 84 min
4 | WMACNSAAF [9-mer peptide] | 54 min
5 | WMMAMRYPI [9-mer peptide] | 186 min
6 | WQLTSIWPI [9-mer peptide] | 42 min
7 | YLLEMLWRL [9-mer peptide] | 24 min
8 | YLQQNTHTL [9-mer peptide] | 30 min
9 | YLYLRPYAL [9-mer peptide] | 144 min
10 | YMHGSIHEV [9-mer peptide] | 54 min
11 | YMWECPDFF [9-mer peptide] | 156 min
12 | YMWLGARYL [9-mer peptide] | 24 min
13 | YWMGGTTYF [9-mer peptide] | 48 min

Same assay, conditions: Table S5; half-life estimated from dissociation in scintillation proximity assay; Acar3

Row | Sequence | Stability T½ (h), peptide - Acar3
14 | VMMAKRPLI [9-mer peptide] | 0.5 h
15 | VMPLLVWLF [9-mer peptide] | 1.9 h
16 | VPMEKLKAL [9-mer peptide] | 1.4 h
17 | VQTAAAVVF [9-mer peptide] | 0.2 h
18 | VVKQLPASF [9-mer peptide] | 0.1 h
19 | WLAKSFFEL [9-mer peptide] | 0.2 h
20 | WMACNSAAF [9-mer peptide] | 0.9 h
21 | WMMAMRYPI [9-mer peptide] | 3.1 h
22 | WQLTSIWPI [9-mer peptide] | 0.7 h
23 | YLLEMLWRL [9-mer peptide] | 0.4 h
24 | YLMPYSVYI [9-mer peptide] | 0.1 h
25 | YLQQNTHTL [9-mer peptide] | 0.5 h
26 | YLYLRPYAL [9-mer peptide] | 2.4 h
27 | YMHGSIHEV [9-mer peptide] | 0.9 h
28 | YMKKRYEEF [9-mer peptide] | 0.2 h
29 | YMWECPDFF [9-mer peptide] | 2.6 h
30 | YMWLGARYL [9-mer peptide] | 0.4 h
31 | YWMGGTTYF [9-mer peptide] | 0.8 h

The sequences below were run on Acar19. Conditions: Table S5, half-life estimated from dissociation in scintillation proximity assay.
Type: binding, great reed warbler Acrocephalus arundinaceus

Row | Sequence | Stability T½ (h), peptide - Acar19
32 | AFHQLVQVI [9-mer peptide] | 0.3 h
33 | AYAGLFTPL [9-mer peptide] | 0.4 h
34 | DAAKNQVAM [9-mer peptide] | 0.2 h
35 | DAAVVFPPV [9-mer peptide] | 10.0 h
36 | DALLNEENL [9-mer peptide] | 2.0 h
37 | DAMENPLSL [9-mer peptide] | 0.2 h
38 | DASFNASAI [9-mer peptide] | 1.0 h
39 | DAVRNAAAI [9-mer peptide] | 0.3 h
40 | DFGYATMAK [9-mer peptide] | 0.3 h
41 | DFIANTETI [9-mer peptide] | 4.7 h
42 | DFISMYFPW [9-mer peptide] | 0.5 h
43 | DFNEAIQAY [9-mer peptide] | 0.3 h
44 | DHIPIINTL [9-mer peptide] | 0.3 h
45 | DIKLIDIAL [9-mer peptide] | 3.7 h
46 | DIQKLVGKL [9-mer peptide] | 0.4 h
47 | DISPTNIPL [9-mer peptide] | 0.2 h
48 | DMNLEQWSV [9-mer peptide] | 0.4 h
49 | DMSTNAEYF [9-mer peptide] | 0.2 h
50 | DMWEHAFYL [9-mer peptide] | 0.3 h
51 | DPNPQEMVL [9-mer peptide] | 0.1 h
52 | DPNPQEVVL [9-mer peptide] | 0.4 h

Row | Sequence | Stability T½ (h), peptide - Acar19
53 | DPSGAYFAW [9-mer peptide] | 0.1 h
54 | DQIRNMSVI [9-mer peptide] | 0.3 h
55 | DSFPNSVTI [9-mer peptide] | 1.4 h
56 | DSIMLTATF [9-mer peptide] | 1.5 h
57 | DTAKAFAYL [9-mer peptide] | 0.5 h
58 | DTDPLPVVF [9-mer peptide] | 0.2 h
59 | DTETLTTMF [9-mer peptide] | 0.1 h
60 | DTFGVIDTM [9-mer peptide] | 0.2 h
61 | DTRAIDQFF [9-mer peptide] | 2.3 h
62 | DVAKIEAPL [9-mer peptide] | 11.4 h
63 | DVSPILEAY [9-mer peptide] | 0.1 h
64 | DVVPMVTQM [9-mer peptide] | 0.6 h
65 | DWMERIEDF [9-mer peptide] | 1.4 h
66 | DWSGYSGSF [9-mer peptide] | 0.3 h
67 | DYAMHGTVF [9-mer peptide] | 2.4 h
68 | DYLQCVLQI [9-mer peptide] | 6.6 h
69 | DYLQYVLQI [9-mer peptide] | 0.5 h
70 | EAAGIAACL [9-mer peptide] | 0.6 h
71 | EAAKNVECI [9-mer peptide] | 0.4 h
72 | EDFEIFYNL [9-mer peptide] | 0.4 h
73 | EFKQILTDF [9-mer peptide] | 3.6 h

Row | Sequence | Stability T½ (h), peptide - Acar19
74 | ENALLVALF [9-mer peptide] | 0.1 h
75 | ETFRLLRSF [9-mer peptide] | 0.1 h
76 | EYAPFARLL [9-mer peptide] | 1.1 h
77 | EYARQVQMI [9-mer peptide] | 0.4 h
78 | FFSPVIASL [9-mer peptide] | 0.9 h
79 | FSIMIYFTF [9-mer peptide] | 0.2 h
80 | FSPRLCRPF [9-mer peptide] | 0.4 h
81 | FWPQHFGLI [9-mer peptide] | 0.1 h
82 | FYPPVLQPI [9-mer peptide] | 0.3 h
83 | GFNKLRSTL [9-mer peptide] | 0.4 h
84 | GFPSLESSF [9-mer peptide] | 0.1 h
85 | GYAWIDFDI [9-mer peptide] | 0.2 h
86 | HAATNFREI [9-mer peptide] | 0.1 h
87 | HTAEIQQFF [9-mer peptide] | 0.3 h
88 | HYNAFHWAI [9-mer peptide] | 0.3 h
89 | HYNAFQWAI [9-mer peptide] | 0.3 h
90 | IAAPNMIAV [9-mer peptide] | 0.1 h
91 | IAASNLEQF [9-mer peptide] | 0.1 h
92 | IAKGIDAEF [9-mer peptide] | 0.1 h
93 | IALPVAWLF [9-mer peptide] | 0.1 h
94 | IANTTDHFF [9-mer peptide] | 0.2 h

Row | Sequence | Stability T½ (h), peptide - Acar19
95 | IASPILFPF [9-mer peptide] | 0.5 h
96 | IFDDLQGSL [9-mer peptide] | 0.1 h
97 | IFPSMYFLM [9-mer peptide] | 0.1 h
98 | IPAPGLGAL [9-mer peptide] | 0.2 h
99 | IPKYLEIEI [9-mer peptide] | 0.2 h
100 | IPNYLEIEI [9-mer peptide] | 0.6 h
101 | IQNALEKAL [9-mer peptide] | 0.1 h
102 | IQNATMDEF [9-mer peptide] | 0.1 h
103 | IQNEIMKPL [9-mer peptide] | 0.2 h
104 | IQNKLSSTF [9-mer peptide] | 0.2 h
105 | ISARGQELF [9-mer peptide] | 0.1 h
106 | ISASLAALF [9-mer peptide] | 0.1 h
107 | ISDPLTSGL [9-mer peptide] | 0.1 h
108 | ITAALAWSL [9-mer peptide] | 0.1 h
109 | ITDWLNFTL [9-mer peptide] | 0.1 h
110 | ITFHNQRDF [9-mer peptide] | 0.2 h
111 | IYAAISYMI [9-mer peptide] | 0.3 h
112 | IYGIFQSTF [9-mer peptide] | 0.1 h
113 | IYTVIYYIF [9-mer peptide] | 0.2 h

Source: publication PMC10360169 (Frontiers in Immunology, 2023)
